Assay results as given in the NIST ThermoML archive (doi:10.1021/je300405a).
± gives the expanded uncertainty stated by the source.

Conditions: Liquid; for speed of sound: Pulse-echo method; for mass density: Vibrating tube method

CCCCCCCCCC(=O)OC [methyl decanoate]
Conditions	mass density, 293.15 K [kg/m3]	mass density, 303.15 K [kg/m3]	mass density, 313.15 K [kg/m3]	mass density, 323.15 K [kg/m3]	mass density, 333.15 K [kg/m3]	mass density, 343.15 K [kg/m3]	speed of sound, 283.15 K [m/s]	speed of sound, 303.15 K [m/s]	speed of sound, 323.15 K [m/s]	speed of sound, 343.15 K [m/s]
101.3 kPa	872.05 ± 1	863.6 ± 1	855.85 ± 1	847.65 ± 1	839.36 ± 1	830.82 ± 1	1362.6 ± 5.6	1287.7 ± 5.3	1214.8 ± 5	1142.8 ± 4.8
10000 kPa	878.88 ± 1	870.96 ± 1	863.12 ± 1	855.36 ± 1.1	847.25 ± 1.1	839.54 ± 1.1	1408.9 ± 5.8	1339.2 ± 5.5	1269.1 ± 5.3	1202.4 ± 5
20000 kPa	885.04 ± 1.1	877.43 ± 1.1	869.91 ± 1.1	862.49 ± 1.1	854.44 ± 1.1	847.61 ± 1.1	1452.2 ± 6	1385.8 ± 5.7	1319.3 ± 5.4	1255.9 ± 5.2
30000 kPa	890.91 ± 1.1	883.54 ± 1.1	876.23 ± 1.1	869.02 ± 1.1	861.45 ± 1.1	854.58 ± 1.1	1493.2 ± 6.1	1429.6 ± 5.9	1365.7 ± 5.6	1304.9 ± 5.4
40000 kPa	896.46 ± 1.1	889.26 ± 1.1	882.19 ± 1.1	875.03 ± 1.1	867.94 ± 1.1	861.37 ± 1.1	1531.7 ± 6.3	1470.3 ± 6	1409 ± 5.8	1350.5 ± 5.6
50000 kPa	901.66 ± 1.1	894.61 ± 1.1	887.77 ± 1.1	880.76 ± 1.1	873.98 ± 1.1	867.59 ± 1.1	1568 ± 6.4	1508.7 ± 6.2	1449.5 ± 6	1393.5 ± 5.7
60000 kPa	906.63 ± 1.1	899.63 ± 1.1	893.04 ± 1.1	886.55 ± 1.1	879.63 ± 1.1	873.44 ± 1.1	1602.6 ± 6.6	1544.9 ± 6.3	1487.8 ± 6.1	1433.7 ± 5.9
70000 kPa	911.3 ± 1.1	904.55 ± 1.1	898.12 ± 1.1	891.71 ± 1.1	885.02 ± 1.1	–	1634.5 ± 6.7	1580.2 ± 6.5	1524 ± 6.3	1471.7 ± 6.1
80000 kPa	915.52 ± 1.1	909.11 ± 1.1	902.9 ± 1.1	896.69 ± 1.1	890.12 ± 1.1	–	1666.4 ± 6.8	1614.1 ± 6.6	1558.3 ± 6.4	–
90000 kPa	920.05 ± 1.1	913.59 ± 1.1	907.5 ± 1.1	901.4 ± 1.1	894.95 ± 1.1	–	1696.9 ± 6.9	1646.1 ± 6.7	1591.2 ± 6.5	–
100000 kPa	924.3 ± 1.1	917.87 ± 1.1	911.9 ± 1.1	905.81 ± 1.1	899.64 ± 1.2	–	1726.9 ± 10	1676.9 ± 10	1623.3 ± 9.9	–
110000 kPa	–	–	–	–	–	–	1755.2 ± 11	1706.8 ± 10	1653.9 ± 10	–
120000 kPa	–	–	–	–	–	–	1783.4 ± 11	1735.1 ± 10	1684.6 ± 10	–
130000 kPa	–	–	–	–	–	–	1809.5 ± 11	1762.8 ± 11	1711.9 ± 10	–
140000 kPa	–	–	–	–	–	–	1835.9 ± 11	1789.2 ± 11	1739.6 ± 11	–
150000 kPa	–	–	–	–	–	–	–	1815.2 ± 11	1765.9 ± 11	–
170000 kPa	–	–	–	–	–	–	–	1864.9 ± 11	1817 ± 11	–
190000 kPa	–	–	–	–	–	–	–	1912.7 ± 12	1864.8 ± 11	–
210000 kPa	–	–	–	–	–	–	–	1957.6 ± 12	1910.9 ± 12	–
